The values that follow come from US11613527B2, “Enzyme inhibitors” (KalVista Pharmaceuticals Limited, priority 2019, dated 2023).

What all share (format): biochemical
One assay addresses Human KLK1 (Homo sapiens (Human), UniProt P06870). The assay is described as follows: Determination of the IC50 for KLK1 (fluorogenic substrate H-DVal-Leu-Arg-AFC). Here is the method: Selected compounds were further screened for inhibitory activity against the related enzyme KLK1. The ability of the compounds of formula (I) to inhibit KLK1 may be determined using the following biological assay:
Determination of the IC50 for KLK1
(§1) KLK1 inhibitory activity in vitro was determined using standard published methods (see e.g. Johansen et al., Int. J. Tiss. Reac. 1986, 8, 185; Shori et al., Biochem. Pharmacol., 1992, 43, 1209; Sturzebecher et al., Biol. Chem. Hoppe-Seyler, 1992, 373, 1025). Human KLK1 (Callbiochem) was incubated at 25° C. with the fluorogenic substrate H-DVal-Leu-Arg-AFC and various concentrations of the test compound. Residual enzyme activity (initial rate of reaction) was determined by measuring the change in optical absorbance at 410 nm and the IC50 value for the test compound was determined.

The target of a further assay is Human plasma kallikrein (Homo sapiens (Human), UniProt P03952). The assay is described as follows: Determination of the IC50 for plasma kallikrein (fluorogenic substrate H-DPro-Phe-Arg-AFC). The note with it: class symbols A-D, read-out: IC50 (human PKal). Here is the method:
The ability of the compounds of formula (I) to inhibit plasma kallikrein may be determined using the following biological assay:
Determination of the IC50 for Plasma Kallikrein
as §1, with “Plasma kallikrein” for “KLK1”, “plasma kallikrein (Protogen)” for “KLK1 (Callbiochem)”, “H-DPro-Phe-Arg-AFC” for “H-DVal-Leu-Arg-AFC”

The target in the next assay is Human FXIa (Homo sapiens (Human), UniProt P03951). The assay is described as follows: Determination of the % inhibition for FXIa (fluorogenic substrate Z-Gly-Pro-Arg-AFC; 40 μM or IC50). Here is the method: Selected compounds were further screened for inhibitory activity against the related enzyme FXIa. The ability of the compounds of formula (I) to inhibit FXIa may be determined using the following biological assay:
Determination of the % Inhibition for FXIa
FXIa inhibitory activity in vitro was determined using standard published methods (see e.g. Johansen et al., Int. J. Tiss. Reac. 1986, 8, 185; Shori et al., Biochem. Pharmacol., 1992, 43, 1209; Sturzebecher et al., Biol. Chem. Hoppe-Seyler, 1992, 373, 1025). Human FXIa (Enzyme Research Laboratories) was incubated at 25° C. with the fluorogenic substrate Z-Gly-Pro-Arg-AFC and 40 μM of the test compound (or alternatively at various concentrations of the test compound in order to determine IC50). Residual enzyme activity (initial rate of reaction) was determined by measuring the change in optical absorbance at 410 nm and the IC50 value for the test compound was determined.

Molecules are shown by their SMILES.

Human plasma kallikrein, sequence (P03952 391-638): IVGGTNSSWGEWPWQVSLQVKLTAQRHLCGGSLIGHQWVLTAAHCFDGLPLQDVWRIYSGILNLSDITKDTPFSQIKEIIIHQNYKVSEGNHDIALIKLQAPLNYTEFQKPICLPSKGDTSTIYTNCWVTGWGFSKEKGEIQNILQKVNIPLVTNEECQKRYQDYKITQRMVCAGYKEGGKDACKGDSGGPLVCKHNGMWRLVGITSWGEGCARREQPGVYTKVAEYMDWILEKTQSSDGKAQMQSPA
Human plasma kallikrein, sequence (P03952 20-390 partner): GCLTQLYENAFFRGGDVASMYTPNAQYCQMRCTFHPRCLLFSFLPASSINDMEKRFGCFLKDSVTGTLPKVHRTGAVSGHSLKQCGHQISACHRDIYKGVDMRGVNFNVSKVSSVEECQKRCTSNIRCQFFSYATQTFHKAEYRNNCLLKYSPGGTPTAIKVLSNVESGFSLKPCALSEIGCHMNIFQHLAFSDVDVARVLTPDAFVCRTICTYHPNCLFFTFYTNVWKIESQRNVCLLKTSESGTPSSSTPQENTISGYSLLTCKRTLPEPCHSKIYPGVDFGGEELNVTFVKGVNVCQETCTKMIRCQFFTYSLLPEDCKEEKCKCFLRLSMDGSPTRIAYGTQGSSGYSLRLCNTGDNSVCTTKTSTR
Human KLK1, sequence (P06870 25-262): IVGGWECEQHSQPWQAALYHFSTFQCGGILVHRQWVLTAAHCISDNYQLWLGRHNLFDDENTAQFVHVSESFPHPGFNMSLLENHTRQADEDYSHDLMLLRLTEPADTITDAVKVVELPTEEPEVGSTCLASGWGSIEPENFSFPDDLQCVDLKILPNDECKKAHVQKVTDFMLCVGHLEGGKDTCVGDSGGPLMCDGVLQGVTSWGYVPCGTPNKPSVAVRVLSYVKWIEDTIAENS
Human FXIa, sequence (P03951 388-625): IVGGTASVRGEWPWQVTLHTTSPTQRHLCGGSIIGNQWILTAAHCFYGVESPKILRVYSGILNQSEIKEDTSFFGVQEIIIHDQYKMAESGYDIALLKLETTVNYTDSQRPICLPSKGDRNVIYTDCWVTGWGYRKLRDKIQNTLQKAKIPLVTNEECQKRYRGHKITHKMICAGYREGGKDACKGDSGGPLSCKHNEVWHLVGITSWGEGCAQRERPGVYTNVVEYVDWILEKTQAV
Human FXIa, sequence (P03951 19-387 partner): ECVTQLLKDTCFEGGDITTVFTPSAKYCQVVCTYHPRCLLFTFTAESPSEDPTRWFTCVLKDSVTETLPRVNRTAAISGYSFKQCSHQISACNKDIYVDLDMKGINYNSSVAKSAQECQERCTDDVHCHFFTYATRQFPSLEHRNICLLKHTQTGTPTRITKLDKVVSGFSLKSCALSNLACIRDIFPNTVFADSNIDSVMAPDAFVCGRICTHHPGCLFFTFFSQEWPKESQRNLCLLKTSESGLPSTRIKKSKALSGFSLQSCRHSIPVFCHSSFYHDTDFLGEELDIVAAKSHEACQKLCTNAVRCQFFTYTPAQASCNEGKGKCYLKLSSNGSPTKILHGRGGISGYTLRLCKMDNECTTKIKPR

Turning to `COCc1nn(Cc2ccc3c(c2)C(=O)N(C)CC3)cc1C(=O)NCc1c(-n2cc(C)nn2)ccc(OC)c1F` [Example 73, N-{[2-Fluoro-3-methoxy-6-(4-methyl-1,2,3-triazol-1-yl)phenyl]methyl}-3-(methoxymethyl)-1-[(2-methyl-1-oxo-3,4-dihydroisoquinolin-7-yl)methyl]pyrazole-4-carboxamide], the values for the IC50 against Human KLK1, at Human plasma kallikrein and at Human FXIa were over 40 µM, 0.03 to 0.1 µM and 11.3 µM, respectively.
In the case of `COc1ccc(-n2cc(C)nn2)c(CNC(=O)c2cn(Cc3cc4n(n3)C3(CC3)CN(C)C4)nc2C(F)F)c1F` [Example 82], the results for the IC50 at Human KLK1, on Human plasma kallikrein and against Human FXIa were over 40 µM, under 0.01 µM and 18.2 µM, respectively.
For `COCc1nn(Cc2cnc3c(c2)CCN(C)C3)cc1C(=O)NCc1c(-n2cc(C)nn2)ccc(OC)c1F` [Example 102, N-{[2-fluoro-3-methoxy-6-(4-methyl-1,2,3-triazol-1-yl)phenyl]methyl}-3-(methoxymethyl)-1-[(7-methyl-6,8-dihydro-5H-1,7-naphthyridin-3-yl)methyl]pyrazole-4-carboxamide] the same measures were over 40 µM, under 0.01 µM and 34.2 µM.
For `COCc1nn(Cc2cc(F)cc3c2CCN(C)C3)cc1C(=O)NCc1c(-n2cc(C)nn2)ccc(OC)c1F` [Example 103, 1-[(7-fluoro-2-methyl-3,4-dihydro-1H-isoquinolin-5-yl)methyl]-N-{[2-fluoro-3-methoxy-6-(4-methyl-1,2,3-triazol-1-yl)phenyl]methyl}-3-(methoxymethyl)pyrazole-4-carboxamide], in that order: over 40 µM, 0.03 to 0.1 µM and over 40 µM.
As for `COCc1nn(Cc2ccc3c(c2Cl)CCN(C)C3)cc1C(=O)NCc1c(-n2cc(C)nn2)ccc(OC)c1F` [Example 104, 1-[(5-chloro-2-methyl-3,4-dihydro-1H-isoquinolin-6-yl)methyl]-N-{[2-fluoro-3-methoxy-6-(4-methyl-1,2,3-triazol-1-yl)phenyl]methyl}-3-(methoxymethyl)pyrazole-4-carboxamide], the 50% inhibitory concentration (IC50) (as a rule, the point on the concentration scale where inhibition reaches its midpoint) against Human KLK1 was over 40 µM; on Human plasma kallikrein it was 0.03 to 0.1 µM; on Human FXIa, over 40 µM.
Regarding `COCc1nn(Cc2ccc3c(c2)C(F)(F)CN(C)C3)cc1C(=O)NCc1c(-n2cc(C)nn2)ccc(OC)c1F` [Example 105, 1-[(4,4-difluoro-2-methyl-1,3-dihydroisoquinolin-6-yl)methyl]-N-{[2-fluoro-3-methoxy-6-(4-methyl-1,2,3-triazol-1-yl)phenyl]methyl}-3-(methoxymethyl)pyrazole-4-carboxamide], the figures for the IC50 against Human KLK1, on Human plasma kallikrein and on Human FXIa were over 40 µM, under 0.01 µM and 30 µM, respectively.
For the molecule `COCc1nn(Cc2ccc3c(c2)CN(C)CC3(F)F)cc1C(=O)NCc1c(-n2cc(C)nn2)ccc(OC)c1F` [Example 106, 1-[(4,4-difluoro-2-methyl-1,3-dihydroisoquinolin-7-yl)methyl]-N-{[2-fluoro-3-methoxy-6-(4-methyl-1,2,3-triazol-1-yl)phenyl]methyl}-3-(methoxymethyl)pyrazole-4-carboxamide], the concentration for half-maximal inhibition (IC50) against Human KLK1 was over 40 µM; on Human plasma kallikrein it was under 0.01 µM; at Human FXIa, 23.1 µM.
For `COCc1nn(Cc2ccc3c(c2F)CN(C)CC3)cc1C(=O)NCc1c(-n2cc(C)nn2)ccc(OC)c1F` [Example 107, 1-[(8-fluoro-2-methyl-3,4-dihydro-1H-isoquinolin-7-yl)methyl]-N-{[2-fluoro-3-methoxy-6-(4-methyl-1,2,3-triazol-1-yl)phenyl]methyl}-3-(methoxymethyl)pyrazole-4-carboxamide], in that order: over 40 µM, under 0.01 µM and over 40 µM.
On to `COCc1nn(Cc2ccc3c(c2)CN(C)CCO3)cc1C(=O)NCc1c(-n2cc(C)nn2)ccc(OC)c1F` [Example 108, N-{[2-fluoro-3-methoxy-6-(4-methyl-1,2,3-triazol-1-yl)phenyl]methyl}-3-(methoxymethyl)-1-[(4-methyl-3,5-dihydro-2H-1,4-benzoxazepin-7-yl)methyl]pyrazole-4-carboxamide], for which the 50% inhibitory concentration (IC50) was over 40 µM on Human KLK1, 0.1 to 1 µM at Human plasma kallikrein and over 40 µM on Human FXIa.
In the case of `COCc1nn(Cc2nc3c(s2)CN(C)CC3)cc1C(=O)NCc1c(-n2cc(C)nn2)ccc(OC)c1F` [Example 109, N-{[2-fluoro-3-methoxy-6-(4-methyl-1,2,3-triazol-1-yl)phenyl]methyl}-3-(methoxymethyl)-1-({5-methyl-4H,6H,7H-[1,3]thiazolo[5,4-c]pyridin-2-yl}methyl)pyrazole-4-carboxamide], the figures for the IC50 on Human KLK1, on Human plasma kallikrein and at Human FXIa were over 40 µM, 0.1 to 1 µM and over 40 µM, respectively.
With `COCc1nn(Cc2ccc3c(c2)CNCCO3)cc1C(=O)NCc1c(-n2cc(C)nn2)ccc(OC)c1F` [Example 110, N-{[2-fluoro-3-methoxy-6-(4-methyl-1,2,3-triazol-1-yl)phenyl]methyl}-3-(methoxymethyl)-1-(2,3,4,5-tetrahydro-1,4-benzoxazepin-7-ylmethyl)pyrazole-4-carboxamide], the IC50 is over 40 µM against Human KLK1, 0.1 to 1 µM on Human plasma kallikrein and over 40 µM at Human FXIa.
For `COCc1nn(Cc2ccc3c(c2F)CCN(C)C3)cc1C(=O)NCc1c(-n2cc(C)nn2)ccc(OC)c1F` [Example 114, 1-[(5-fluoro-2-methyl-3,4-dihydro-1H-isoquinolin-6-yl)methyl]-N-{[2-fluoro-3-methoxy-6-(4-methyl-1,2,3-triazol-1-yl)phenyl]methyl}-3-(methoxymethyl)pyrazole-4-carboxamide], the figures for the concentration for half-maximal inhibition (IC50) on Human KLK1, at Human plasma kallikrein and at Human FXIa were over 40 µM, 0.01 to 0.03 µM and over 40 µM, respectively.
Turning to `COCc1nn(Cc2cnc3c(c2)CCN(CC(F)F)C3)cc1C(=O)NCc1c(-n2cc(C)nn2)ccc(OC)c1F` [Example 115, 1-{[7-(2,2-difluoroethyl)-6,8-dihydro-5H-1,7-naphthyridin-3-yl]methyl}-N-{[2-fluoro-3-methoxy-6-(4-methyl-1,2,3-triazol-1-yl)phenyl]methyl}-3-(methoxymethyl)pyrazole-4-carboxamide], the IC50 against Human KLK1 was over 4 µM; at Human plasma kallikrein, 0.01 to 0.03 µM; on Human FXIa it was over 4 µM.
Consider `COCc1nn(Cc2cc(F)c3c(c2)CCN(C)C3)cc1C(=O)NCc1c(-n2cc(C)nn2)ccc(OC)c1F` [Example 116, 1-[(8-fluoro-2-methyl-3,4-dihydro-1H-isoquinolin-6-yl)methyl]-N-{[2-fluoro-3-methoxy-6-(4-methyl-1,2,3-triazol-1-yl)phenyl]methyl}-3-(methoxymethyl)pyrazole-4-carboxamide], for which the IC50 on Human KLK1 is over 4 µM; on Human plasma kallikrein it was under 0.01 µM; against Human FXIa, over 4 µM.
Regarding `COCc1nn(Cc2ccc3c(c2)C2CCCN2CC3)cc1C(=O)NCc1c(-n2cc(C)nn2)ccc(OC)c1F` (stereo not drawn) [Example 120, 1-{1H,2H,3H,5H,6H,10bH-pyrrolo[2,1-a]isoquinolin-9-ylmethyl}-N-{[2-fluoro-3-methoxy-6-(4-methyl-1,2,3-triazol-1-yl)phenyl]methyl}-3-(methoxymethyl)pyrazole-4-carboxamide], the IC50 at Human KLK1 was over 40 µM; at Human plasma kallikrein, under 0.01 µM; against Human FXIa, over 40 µM.
Consider `COCc1nn(Cc2ccc3c(c2)CCN(C)CC3)cc1C(=O)NCc1c(-n2cc(C)nn2)ccc(OC)c1F` [Example 121, N-{[2-fluoro-3-methoxy-6-(4-methyl-1,2,3-triazol-1-yl)phenyl]methyl}-3-(methoxymethyl)-1-[(3-methyl-1,2,4,5-tetrahydro-3-benzazepin-7-yl)methyl]pyrazole-4-carboxamide], for which the IC50 on Human KLK1 was over 40 µM; on Human plasma kallikrein it was under 0.01 µM; on Human FXIa it was over 40 µM.
On to `COCc1nn(Cc2ccc3c(c2)C2CCC3N2C(C)C)cc1C(=O)NCc1c(-n2cc(C)nn2)ccc(OC)c1F` (stereo not drawn) [Example 123, N-{[2-fluoro-3-methoxy-6-(4-methyl-1,2,3-triazol-1-yl)phenyl]methyl}-1-({11-isopropyl-11-azatricyclo[6.2.1.0^{2,7}]undeca-2(7),3,5-trien-4-yl}methyl)-3-(methoxymethyl)pyrazole-4-carboxamide], for which the IC50 at Human KLK1 is over 40 µM; on Human plasma kallikrein it was 0.03 to 0.1 µM; at Human FXIa, over 40 µM.
